Test results from ChEMBL document CHEMBL3526091, “Pharmacokinetics, metabolism, and excretion of the glycogen synthase kinase-3 inhibitor LY2090314 in rats, dogs, and humans: a case study in rapid clearance by extensive metabolism with low circulating metabolite exposure” (Drug Metab Dispos, 2013).

Legend:
Plasma = assay: Plasma concentration in beagle dog at 5 mg/kg, iv administered for 30 mins; format: ADME, organism-based, Canis lupus familiaris; set-up: dose 5 mg/kg, dosed compound name [14C]LY2090314, route intravenous; details: in vivo, 0.5 h
[1] = Tmax in cancer patient at 40 mg for 60 mins treated 1/8 cycle/day; format: ADME, organism-based; set-up: dosed compound name LY2090314; details: human, in vivo
[2] = Half life in cancer patient at 60 mg for 60 mins treated 1/8 cycle/day; format: ADME, organism-based; set-up: dosed compound name LY2090314; details: human, in vivo
[3] = Drug recovery in bile duct-intact Sprague-Dawley rat assessed as radioactivity in feces during 0 to 24 hrs at 5 mg/kg, iv administered for 30 mins relative to dosed radioactivity; format: ADME, organism-based; set-up: dose 5 mg/kg, dosed compound name [14C]LY2090314, route intravenous; details: in vivo
[4] = Drug uptake in beagle […] blood at 5 mg/kg, iv administered for 30 mins; format: ADME, organism-based, Canis lupus familiaris; set-up: dose 5 mg/kg, dosed compound name [14C]LY2090314, route intravenous; details: in vivo, 0.5 h
[5] = Drug recovery in Sprague-Dawley rat carcass at 5 mg/kg, iv administered for 30 mins during 0 to 168 hrs time interval by radio analysis; format: ADME, organism-based; set-up: dose 5 mg/kg, dosed compound name [14C]LY2090314, route intravenous; details: in vivo
[6] = Drug recovery in beagle dog urine at 5 mg/kg, iv administered for 30 mins during 0 to 168 hrs time interval by radio analysis; format: ADME, organism-based, Canis lupus familiaris; set-up: dose 5 mg/kg, dosed compound name [14C]LY2090314, route intravenous; details: in vivo
Rattus norvegicus [7] = assay: Cmax in Sprague-Dawley rat assessed as total radioactivity at 5 mg/kg, iv administered for 30 mins; format: ADME, organism-based; set-up: dose 5 mg/kg, dosed compound name [14C]LY2090314, route intravenous; details: in vivo, 0.5 h
[8] = Cmax in cancer patient at 20 mg for 60 mins treated 2/1 cycle/day; format: ADME, organism-based; set-up: dose 20 mg, dosed compound name LY2090314; details: human, in vivo
[9] = Volume of distribution at steady state in cancer patient at 60 mg for 60 mins treated 1/8 cycle/day; format: ADME, organism-based; set-up: dosed compound name LY2090314; details: human, in vivo, read-out: Vdss
Canis familiaris = assay: Elimination half life in beagle dog assessed as total radioactivity at 5 mg/kg, iv administered for 30 mins; format: ADME, organism-based, Canis lupus familiaris; set-up: dose 5 mg/kg, dosed compound name [14C]LY2090314, route intravenous; details: in vivo, 0.5 h
[10] = Plasma protein binding in beagle dog; format: ADME, cell-free, Canis lupus familiaris; set-up: dosed compound name [14C]LY2090314; details: read-out: PPB
[11] = Plasma protein binding in cancer patient; format: ADME, cell-free; set-up: dosed compound name LY2090314; details: human, read-out: PPB (converted)
[12] = Tmax in cancer patient at 10 mg for 60 mins treated 1/1 cycle/day; format: ADME, organism-based; set-up: dosed compound name LY2090314; details: human, in vivo
[13] = Half life in cancer patient at 40 mg for 60 mins treated 1/8 cycle/day; format: ADME, organism-based; set-up: dosed compound name LY2090314; details: human, in vivo
[14] = Cmax in cancer patient at 20 mg for 60 mins treated 1/1 cycle/day; format: ADME, organism-based; set-up: dose 20 mg, dosed compound name LY2090314; details: human, in vivo
[15] = Tmax in beagle dog at 5 mg/kg, iv administered for 30 mins; format: ADME, organism-based, Canis lupus familiaris; set-up: dose 5 mg/kg, dosed compound name [14C]LY2090314, route intravenous; details: in vivo
[16] = Volume of distribution at steady state in cancer patient at 40 mg for 60 mins treated 1/8 cycle/day; format: ADME, organism-based; set-up: dosed compound name LY2090314; details: human, in vivo, read-out: Vdss
[17] = AUC (0 to infinity) in cancer patient at 20 mg for 60 mins treated 2/1 cycle/day; format: ADME, organism-based; set-up: dose 20 mg, time infinity, dosed compound name LY2090314; details: human, plasma
[18] = Volume of distribution at steady state in cancer patient at 120 mg for 60 mins treated 1/8 cycle/day; format: ADME, organism-based; set-up: dosed compound name LY2090314; details: human, in vivo, read-out: Vdss
[19] = Drug metabolism in Mrp2 knockout Sprague-Dawley rat bile at 5 mg/kg, iv administered for 30 mins; format: ADME, organism-based; set-up: dose 5 mg/kg, dosed compound name LY2090314, route intravenous; details: in vivo, 0.5 h
[20] = Volume of distribution at steady state in beagle dog at 5 mg/kg, iv administered for 30 mins; format: ADME, organism-based, Canis lupus familiaris; set-up: dose 5 mg/kg, dosed compound name [14C]LY2090314, route intravenous; details: in vivo, read-out: Vdss
[21] = Half life in cancer patient at 120 mg for 60 mins treated 1/1 cycle/day; format: ADME, organism-based; set-up: dosed compound name LY2090314; details: human, in vivo
[22] = AUC (0 to infinity) in cancer patient at 10 mg for 60 mins treated 1/1 cycle/day; format: ADME, organism-based; set-up: dose 10 mg, time infinity, dosed compound name LY2090314; details: human, plasma
Rattus norvegicus [23] = assay: Total drug recovery in Sprague-Dawley rat at 5 mg/kg, iv administered for 30 mins during 0 to 24 hrs time interval by radio analysis; format: ADME, organism-based; set-up: dose 5 mg/kg, dosed compound name [14C]LY2090314, route intravenous; details: in vivo
[24] = Cmax in Sprague-Dawley rat at 5 mg/kg, iv administered for 30 mins; format: ADME, organism-based; set-up: dose 5 mg/kg, dosed compound name [14C]LY2090314, route intravenous; details: in vivo
[25] = Drug recovery in bile duct-cannulated Sprague-Dawley rat assessed as radioactivity in bile during 0 to 24 hrs at 5 mg/kg, iv administered for 30 mins relative to dosed radioactivity; format: ADME, organism-based; set-up: dose 5 mg/kg, dosed compound name [14C]LY2090314, route intravenous; details: in vivo
[26] = Tmax in cancer patient at 60 mg for 60 mins treated 1/1 cycle/day; format: ADME, organism-based; set-up: dosed compound name LY2090314; details: human, in vivo

Compound recovery (Plasma): 21.4%
Tmax [1]: 1 h
half-life [2]: 3.35 h
Radiolabel recovery [3]: 2.4%
Compound recovery [4]: 25.5%
Radiolabel recovery [5]: 0.07%
Radiolabel recovery [6]: 20.6%
Cmax (Rattus norvegicus [7]): 2080 ng/mL
Cmax [8]: 271 ng/mL
Vd [9]: 67.5 L
beta t1/2 (Canis familiaris): 73.6 h
fraction unbound [10]: 0.01
fraction unbound [11]: 0.03
Tmax [12]: 0.95 h
half-life [13]: 2.68 h
Cmax [14]: 246 ng/mL
Tmax [15]: 0.5 h
Vd [16]: 64.1 L
AUC(0-inf) [17]: 404 ng·h/mL
Vd [18]: 143 L
Drug metabolism [19]: metabolite_detected
Vd [20]: 0.915 L/kg
half-life [21]: 2.97 h
AUC(0-inf) [22]: 216 ng·h/mL
Radiolabel recovery (Rattus norvegicus [23]): 92.6%
Cmax [24]: 1680 ng/mL
Radiolabel recovery [25]: 91.8%
Tmax [26]: 0.55 h
SMILES: O=C1NC(=O)C(c2cnc3ccccn23)=C1c1cn2c3c(cc(F)cc13)CN(C(=O)N1CCCCC1)CC2 [LY-2090314]
